Assay [1] deals with T1, Cannabinoid CB2 Receptor (Homo sapiens, UniProt P34972).
T1 construct: expressed in transfected cells; semi-purified membrane pellet
Description: Binding assay, cannabinoid CB2 receptor ([3H]-CP-55,940 displacement, SK-N-MC cell membranes). The conditions noted are these: test concentration of 0.2 μM; human CB2 in SK-N-MC membranes; read-out: Cannabinoid CB2 Receptor Binding, percent inhibition. The protocol:
(§1) Binding Assay for CB1 or CB2 Agonists or Inverse Agonists
(§2) The human CB1 and CB2 receptors were stably expressed in SK-N-MC cells transfected with pcDNA3 CB-1 (human) or pcDNA3 CB-2 (human). The cells were grown in T-180 cell culture flasks under standard cell culture conditions at 37° C. in a 5% CO2 atmosphere. The cells were harvested by trysinization and homogenized in a homogenization buffer (10 mM Tris, 0.2 mM MgCl2, 5 mM KCl, with protease inhibitors aprotinin, leupeptin, pepstatin A and bacitracin) and centrifuged (2000 g). The supernatant was then centrifuged in 2M sucrose (31,300 g) to produce a semi-purified membrane pellet. The pellet was resuspended in homogenization and store at −80° C.
(§3) On the day of the assay, the pellet was thawed on ice and diluted in assay buffer (50 mM Tris-HCl, 5 mM MgCl2, 2.5 mM EDTA, 0.5 mg/mL fatty acid free bovine serum albumin, pH 7.5). The diluted membrane was added with buffer, test compound or standard and the radioligand [H]^3+-CP-55,940 (0.2 nM) to the wells of a 96-well polypropylene plate. Non-specific binding was measured in wells containing 10 uM WIN 55,212. The plate was covered and incubated for 90 minutes at 30° C. The contents were then aspirated onto a Packard Unifilter GF/C filter bottom plate prewet with 0.5% polyethyleneimine. The wells of the polypropylene plate were rinsed and aspirated seven times with a 0.9% saline-0.5% Tween 20 solution. The Unifilter plate was dried, a scintillation cocktail was added to each well and the counts representing binding were quantitated in a TopCount scintillation counter.
For compounds tested, an IC50 binding value was obtained from percent inhibition studies in which various test concentrations were used. The binding value (in μM) was calculated by linear regression. For compounds without an IC50 binding value, the percent inhibition (in %) was obtained at a test concentration of 0.2 μM.

Assay [2] concerns the target T2, Cannabinoid CB1 Receptor (Homo sapiens, UniProt P21554).
T2 construct: expressed in transfected cells; semi-purified membrane pellet
In words: Binding assay, cannabinoid CB1 receptor ([3H]-CP-55,940 displacement, SK-N-MC cell membranes). The conditions noted are these: for inhibition at 0.2 µM: read-out: Cannabinoid CB1 Receptor Binding, percent inhibition. The protocol:
as §1, §2
as §3, with “The diluted membrane was added with buffer, test compound or standard and the radioligand [H]^3+-CP-55,940 (0.2 nM) to the wells of a 96-well polypropylene plate. Non-specific binding was measured in wells containing 10 uM WIN 55,212.” left out
For compounds tested, an IC50 binding value was obtained from percent inhibition studies in which various test concentrations were used. The binding value (in μM) was calculated by linear regression.

Setting [3] is: test concentration of 0.2 μM, human CB1 in SK-N-MC membranes.

Data on 17 compounds can be found in patent US20100069341A1, “TETRAHYDRO-PYRANOPYRAZOLE CANNABINOID MODULATORS” (priority 2005, published 2010).

Read-outs that look alike come from different tables or passages of the source.

T1 sequence (P34972 whole entry): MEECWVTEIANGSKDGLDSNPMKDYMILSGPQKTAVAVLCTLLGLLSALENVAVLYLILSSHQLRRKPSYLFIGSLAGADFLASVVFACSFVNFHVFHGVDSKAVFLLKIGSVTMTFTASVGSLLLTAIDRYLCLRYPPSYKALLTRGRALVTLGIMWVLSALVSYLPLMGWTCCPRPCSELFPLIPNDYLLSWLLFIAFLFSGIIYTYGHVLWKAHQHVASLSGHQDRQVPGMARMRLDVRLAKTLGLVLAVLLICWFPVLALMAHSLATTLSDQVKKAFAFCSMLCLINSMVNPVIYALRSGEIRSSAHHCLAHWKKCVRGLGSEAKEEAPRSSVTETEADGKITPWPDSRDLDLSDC
T2 sequence (P21554 whole entry): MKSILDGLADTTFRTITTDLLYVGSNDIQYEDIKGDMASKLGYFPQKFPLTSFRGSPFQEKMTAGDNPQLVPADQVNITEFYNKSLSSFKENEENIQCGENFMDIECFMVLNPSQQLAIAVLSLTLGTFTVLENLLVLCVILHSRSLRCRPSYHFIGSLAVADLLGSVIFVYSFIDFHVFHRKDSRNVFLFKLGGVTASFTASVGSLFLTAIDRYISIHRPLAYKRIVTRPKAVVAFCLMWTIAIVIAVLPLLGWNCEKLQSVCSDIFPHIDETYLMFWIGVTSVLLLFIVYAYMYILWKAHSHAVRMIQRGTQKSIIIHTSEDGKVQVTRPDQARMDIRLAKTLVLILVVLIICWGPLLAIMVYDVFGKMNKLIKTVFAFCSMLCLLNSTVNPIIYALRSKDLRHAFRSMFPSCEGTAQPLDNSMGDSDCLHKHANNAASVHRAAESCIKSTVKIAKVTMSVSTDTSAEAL

Regarding `O=C(c1nn(-c2ccc(Cl)cc2)c2c1COC/C2=C\c1ccc(F)cc1)N1CCC[C@H]1CO` [Cpd 19, (7Z)-[1-(4-chloro-phenyl)-7-(4-fluoro-benzylidene)-1,4,6,7-tetrahydro-pyrano[4,3-c]pyrazol-3-yl]-[(2S)-2-hydroxymethyl-pyrrolidin-1-yl]-methanone], the inhibition at 0.2 µM in assay [1] was determined as 13%; in assay [2] (setting [3]) it was 51%.

As for `O=C(NN1CCCCC1)c1nn(-c2ccc(Cl)cc2Cl)c2c1COC/C2=C\c1ccsc1` [Cpd 43, (7Z)-1-(2,4-dichloro-phenyl)-7-thiophen-3-ylmethylene-1,4,6,7-tetrahydro-pyrano[4,3-c]pyrazole-3-carboxylic acid piperidin-1-ylamide], the inhibition at 0.2 µM in assay [1] is 19%; in assay [2] (setting [3]), 83%. The compound further showed an IC50 in assay [2] of 0.03 µM.

Take `C[C@@H](NC(=O)c1nn(-c2ccc(Cl)cc2Cl)c2c1COC/C2=C\c1ccc(Cl)s1)C1CCCCC1` [Cpd 52, (7Z)-7-(5-chloro-thiophen-2-ylmethylene)-1-(2,4-dichloro-phenyl)-1,4,6,7-tetrahydro-pyrano[4,3-c]pyrazole-3-carboxylic acid [(R)-1-cyclohexyl-ethyl]-amide]: the inhibition at 0.2 µM is 21% in assay [1] and 88% in assay [2] (setting [3]). Moreover, in assay [2], the concentration for half-maximal inhibition (IC50) came out at 0.009 µM.

Regarding `CC1CCCC(C)N1NC(=O)c1nn(-c2ccc(Cl)cc2Cl)c2c1COC/C2=C\c1ccc(F)cc1` (centres unmarked) [Cpd 27, (7Z)-1-(2,4-dichloro-phenyl)-7-(4-fluoro-benzylidene)-1,4,6,7-tetrahydro-pyrano[4,3-c]pyrazole-3-carboxylic acid (2,6-dimethyl-piperidin-1-yl)-amide], the inhibition at 0.2 µM in assay [1] turned out to be 20%; in assay [2] (setting [3]) it was 77%. Besides, the concentration for half-maximal inhibition (IC50) in assay [2] came out at 0.04 µM.

For `O=C(c1nn(-c2ccc(Cl)cc2)c2c1COC/C2=C\c1ccc(F)cc1)N1CCC[C@@H]1CO` [Cpd 18, (7Z)-[1-(4-chloro-phenyl)-7-(4-fluoro-benzylidene)-1,4,6,7-tetrahydro-pyrano[4,3-c]pyrazol-3-yl]-[(2R)-2-hydroxymethyl-pyrrolidin-1-yl]-methanone], the figures for the inhibition at 0.2 µM in assay [1] and in assay [2] (setting [3]) were 14% and 30%, respectively.

Turning to `O=C(NN1CC2CCCC2C1)c1nn(-c2ccc(Cl)cc2)c2c1COC/C2=C\c1ccc(F)cc1` (centres unmarked) [Cpd 15, (7Z)-1-(4-chloro-phenyl)-7-(4-fluoro-benzylidene)-1,4,6,7-tetrahydro-pyrano[4,3-c]pyrazole-3-carboxylic acid (hexahydro-cyclopenta[c]pyrrol-2-yl)-amide], the inhibition at 0.2 µM was 18% in assay [1] and 81% in assay [2] (setting [3]). The same compound yielded a half-maximal inhibitory concentration (IC50) in assay [2] of 0.08 µM.

As for `C[C@@H](NC(=O)c1nn(-c2ccc(Cl)cc2Cl)c2c1COC/C2=C\c1ccc(Cl)o1)c1ccccn1` [Cpd 66, (7Z)-7-(5-chloro-furan-2-ylmethylene)-1-(2,4-dichloro-phenyl)-1,4,6,7-tetrahydro-pyrano[4,3-c]pyrazole-3-carboxylic acid [(R)-1-pyridin-2-yl-ethyl]-amide], the inhibition at 0.2 µM was 10% in assay [1] and 58% in assay [2] (setting [3]).

For `O=C(NN1CCCCC1)c1nn(-c2ccc(Cl)cc2Cl)c2c1COC/C2=C\c1ccc(Cl)s1` [Cpd 54, (7Z)-7-(5-chloro-thiophen-2-ylmethylene)-1-(2,4-dichloro-phenyl)-1,4,6,7-tetrahydro-pyrano[4,3-c]pyrazole-3-carboxylic acid piperidin-1-ylamide], the inhibition at 0.2 µM in assay [1] was determined as 13%; in assay [2] (setting [3]), 78%. For the same compound, the half-maximal inhibitory concentration (IC50) in assay [2] came out at 0.02 µM.

With `C[C@H](NC(=O)c1nn(-c2ccc(Cl)cc2Cl)c2c1COC/C2=C\c1ccc(F)cc1)c1ccccc1` [Cpd 1, (7Z)-1-(2,4-dichloro-phenyl)-7-(4-fluoro-benzylidene)-1,4,6 7-tetrahydro-pyrano[4,3-c]pyrazole-3-carboxylic acid [(1S)-1-phenyl-ethyl]-amide], the inhibition at 0.2 µM in assay [1] was 6%; in assay [2] (setting [3]), 54%.

For `CC1CCCC(C)N1NC(=O)c1nn(-c2ccc(Cl)cc2Cl)c2c1COC/C2=C\c1ccsc1` (centres unmarked) [Cpd 46, (7Z)-1-(2,4-dichloro-phenyl)-7-thiophen-3-ylmethylene-1,4,6,7-tetrahydro-pyrano[4,3-c]pyrazole-3-carboxylic acid (2,6-dimethyl-piperidin-1-yl)-amide], the inhibition at 0.2 µM in assay [1] stood at 20%; in assay [2] (setting [3]) it was 68%.

`O=C(NN1CCCC1)c1nn(-c2ccc(Cl)cc2Cl)c2c1COC/C2=C\c1ccc(Cl)s1` [Cpd 57, (7Z)-7-(5-chloro-thiophen-2-ylmethylene)-1-(2,4-dichloro-phenyl)-1,4,6,7-tetrahydro-pyrano[4,3-c]pyrazole-3-carboxylic acid pyrrolidin-1-ylamide]: the values for the inhibition at 0.2 µM in assay [1] and in assay [2] (setting [3]) were 15% and 67%, respectively.

As to `O=C(c1nn(-c2ccc(Cl)cc2Cl)c2c1COC/C2=C\c1ccc(F)cc1)N1CCC[C@@H]1CO` [Cpd 20, (7Z)-[1-(2,4-dichloro-phenyl)-7-(4-fluoro-benzylidene)-1,4,6,7-tetrahydro-pyrano[4,3-c]pyrazol-3-yl]-[(2R)-2-hydroxymethyl-pyrrolidin-1-yl]-methanone], the inhibition at 0.2 µM in assay [1] was 18%; in assay [2] (setting [3]), 27%.

As to `O=C(NCc1ccccn1)c1nn(-c2ccc(Cl)cc2Cl)c2c1COC/C2=C\c1ccc(F)cc1` [Cpd 6, (7Z)-1-(2,4-dichloro-phenyl)-7-(4-fluoro-benzylidene)-1,4,6,7-tetrahydro-pyrano[4,3-c]pyrazole-3-carboxylic acid (pyridin-2-ylmethyl)-amide], the figures for the inhibition at 0.2 µM in assay [1] and in assay [2] (setting [3]) were 25% and 37%, respectively.

With `O=C(N[C@@H]1c2ccccc2C[C@@H]1O)c1nn(-c2ccc(Cl)cc2Cl)c2c1COC/C2=C\c1ccc(F)cc1` [Cpd 5, (7Z)-1-(2,4-dichloro-phenyl)-7-(4-fluoro-benzylidene)-1,4,6,7-tetrahydro-pyrano[4,3-c]pyrazole-3-carboxylic acid [(1R,2S)-2-hydroxy-indan-1-yl)-amide], the values for the inhibition at 0.2 µM in assay [1] and in assay [2] (setting [3]) were 28% and 82%, respectively. The IC50 in assay [2] came out at 0.03 µM.

Consider `C[C@H](NC(=O)c1nn(-c2ccc(Cl)cc2Cl)c2c1COC/C2=C\c1ccsc1)c1ccccc1` [Cpd 42, (7Z)-1-(2,4-dichloro-phenyl)-7-thiophen-3-ylmethylene-1,4,6,7-tetrahydro-pyrano[4,3-c]pyrazole-3-carboxylic acid [(S)-1-phenyl-ethyl]-amide], for which the inhibition at 0.2 µM in assay [1] was 16%; in assay [2] it was 57%.

In the case of `CC1CCCC(C)N1NC(=O)c1nn(-c2ccc(Cl)cc2Cl)c2c1COC/C2=C\c1ccc(Cl)o1` (centres unmarked) [Cpd 68, (7Z)-7-(5-chloro-furan-2-ylmethylene)-1-(2,4-dichloro-phenyl)-1,4,6,7-tetrahydro-pyrano[4,3-c]pyrazole-3-carboxylic acid (2,6-dimethyl-piperidin-1-yl)-amide], the inhibition at 0.2 µM in assay [1] is 22%; in assay [2] (setting [3]) it was 38%.

In the case of `C[C@@H](NC(=O)c1nn(-c2ccc(Cl)cc2Cl)c2c1COC/C2=C\c1ccc(Cl)s1)c1ccccn1` [Cpd 61, (7Z)-7-(5-chloro-thiophen-2-ylmethylene)-1-(2,4-dichloro-phenyl)-1,4,6,7-tetrahydro-pyrano[4,3-c]pyrazole-3-carboxylic acid [(R)-1-pyridin-2-yl-ethyl]-amide], the results for the inhibition at 0.2 µM in assay [1] and in assay [2] (setting [3]) were 9.5% and 84%, respectively. Further, in assay [2], the half-inhibitory concentration (IC50) worked out at 0.05 µM.

The inhibition is the change of the read-out against control, counted positive when it falls. A word on the IC50: it is the concentration at which inhibition is half-maximal.
